The source of these data is ChEMBL document CHEMBL5518235, “Identification of Novel Series of Potent and Selective Relaxin Family Peptide Receptor 1 (RXFP1) Agonists” (J Med Chem, 2024).

A short description of series [1]: Metabolic stability in human liver microsomes assessed as intrinsic clearance at 1 uM incubated for 30 mins in presence of NADPH by LC-MS/MS analysis. Type of series: ADME, Microsome. Particulars: liver microsomes, read-out: CLH.
Series [2] is described as follows: Metabolic stability in Han Wistar rat hepatocytes assessed as unbound intrinsic clearance measured per 10^6 cells at 1 uM after 120 mins by LC-MS/MS analysis. Type of series: ADME, cell-based, Hepatocyte. The settings on record: 2 h.
For series [3], the target named is T1, Relaxin receptor 1 (Homo sapiens, UniProt Q9HBX9).
T1 sequence (Q9HBX9 whole entry): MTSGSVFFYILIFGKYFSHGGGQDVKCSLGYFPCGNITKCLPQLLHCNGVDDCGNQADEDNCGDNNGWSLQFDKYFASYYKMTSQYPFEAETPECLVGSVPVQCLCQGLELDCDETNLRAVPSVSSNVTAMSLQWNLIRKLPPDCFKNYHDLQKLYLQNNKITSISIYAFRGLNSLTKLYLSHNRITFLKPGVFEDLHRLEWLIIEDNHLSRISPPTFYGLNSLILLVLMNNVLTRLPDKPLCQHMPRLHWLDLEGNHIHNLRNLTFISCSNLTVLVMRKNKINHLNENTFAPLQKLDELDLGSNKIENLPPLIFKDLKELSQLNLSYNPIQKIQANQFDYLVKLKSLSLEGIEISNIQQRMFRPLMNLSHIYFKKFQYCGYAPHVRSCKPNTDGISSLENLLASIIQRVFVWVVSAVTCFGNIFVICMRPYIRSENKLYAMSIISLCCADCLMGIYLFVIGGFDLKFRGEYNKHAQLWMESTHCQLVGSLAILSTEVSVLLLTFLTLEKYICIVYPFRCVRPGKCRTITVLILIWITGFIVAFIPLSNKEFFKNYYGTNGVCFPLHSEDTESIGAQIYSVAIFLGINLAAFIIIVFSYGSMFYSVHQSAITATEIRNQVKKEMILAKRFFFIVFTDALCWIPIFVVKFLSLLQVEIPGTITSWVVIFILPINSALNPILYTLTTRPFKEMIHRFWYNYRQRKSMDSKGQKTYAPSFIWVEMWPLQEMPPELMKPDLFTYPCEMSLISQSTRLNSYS
Description: Agonist activity at human RXFP1 expressed in T-Rex-CHO-K1 cells assessed as stimulation of cAMP production incubated for 45 mins by HTRF assay. Type of series: functional, cell-based.

A short description of series [4]: Metabolic stability in Han Wistar rat hepatocytes assessed as intrinsic clearance measured per 10^6 cells at 1 uM after 120 mins by LC-MS/MS analysis. The series is classed as ADME, cell-based, Hepatocyte. The settings on record: read-out: CLH.
Series [5] can be described thus: Protein binding in rat plasma assessed as free fraction at 5 uM incubated for 18 hrs by equilibrium dialysis based LC-MS/MS analysis. Type of series: ADME, cell-free.
Series [6] can be described thus: Clearance in Han Wistar rat at 0.76 micromol/kg, iv by LC-MS/MS analysis. The series is classed as ADME, organism-based. Particulars: in vivo, dose 0.76 µmol/kg.
Series [7] is described as follows: Volume of distribution at steady state in Han Wistar rat at 0.76 micromol/kg, iv by LC-MS/MS analysis. The series is classed as ADME, organism-based. Particulars: in vivo, dose 0.76 µmol/kg, read-out: Vdss.
Series [8] can be described thus: Lipophilicity, logD of the compound in 1-octanol and phosphate buffer at pH 7.4 incubated for 3 hrs by shake flask method based LC/MS/MS analysis. Type of series: physicochemical. The settings on record: 1-octanol/phosphate buffer, pH 7.4.
Series [9] is described as follows: Half-life in Han Wistar rat at 0.76 micromol/kg, iv by LC-MS/MS analysis. The series is classed as ADME, organism-based. Particulars: in vivo, dose 0.76 µmol/kg.
The nature of series [10]: Metabolic stability in human liver microsomes assessed as unbound intrinsic clearance at 1 uM incubated for 30 mins in presence of NADPH by LC-MS/MS analysis. Type of series: ADME, Microsome. The settings on record: 0.5 h.
Series [11] is described as follows: Metabolic stability in cryopreserved human hepatocytes assessed as unbound intrinsic clearance measured per 10^6 cells at 1 uM measured after 120 mins by LC-MS/MS analysis. The series is classed as ADME, cell-based, Hepatocyte. The settings on record: 2 h.
Series [12] in a line: Metabolic stability in cryopreserved human hepatocytes assessed as intrinsic clearance measured per 10^6 cells at 1 uM after 120 mins by LC-MS/MS analysis. Type of series: ADME, cell-based, Hepatocyte. Particulars: cryopreserved hepatocytes, read-out: CLH.
Series [13] concerns the target T2, Relaxin receptor 1 (Homo sapiens) (UniProt Q9HBX9).
T2 sequence (whole entry): T1 sequence (Q9HBX9 whole entry)
Description: Agonist activity at human RXFP1 expressed in T-Rex-CHO-K1 cells assessed as stimulation of cAMP production by measuring maximal efficacy at 50 uM incubated for 45 mins by HTRF assay relative to control. Type of series: functional, cell-based. The settings on record: filed as agonist.

For series [14], the target named is T2, Relaxin receptor 1 (Homo sapiens). The series is described as follows: Displacement of [125I]relaxin H2 from human RXFP1 expressed in CHO cells incubated for 90 mins by radioligand binding assay. Type of series: cell-based.
A short description of series [15]: Clearance in Han Wistar rat at 0.99 micromol/kg, iv by LC-MS/MS analysis. Type of series: ADME, organism-based. The settings on record: in vivo, dose 0.99 µmol/kg.
Series [16] in a line: Metabolic stability in Han Wistar rat hepatocytes assessed as unbound intrinsic clearance measured […] at 1 uM after 120 mins by LC-MS/MS analysis. Type of series: ADME, cell-based, Hepatocyte. The settings on record: 2 h.
Series [17] in a line: Half-life in Han Wistar rat at 0.99 micromol/kg, iv by LC-MS/MS analysis. The settings on record: in vivo, dose 0.99 µmol/kg. The series is classed as ADME, organism-based.
The nature of series [18]: Metabolic stability in rat hepatocytes assessed as unbound fraction at 1 uM incubated for 4 hrs by equilibrium dialysis based LC-MS/MS analysis. The series is classed as ADME, cell-based, Hepatocyte.
Series [19] in a line: Kinetic solubility of compound at pH 7.4 incubated for 24 hrs by shake-flask method based LC-MS/MS analysis. The series is classed as physicochemical. The settings on record: buffer, read-out: Kinetic_solubility.
Series [20] in a line: Metabolic stability in human liver microsomes assessed as unbound fraction at 1 uM incubated for 4 hrs by equilibrium dialysis based LC-MS/MS analysis. Type of series: ADME, Microsome.
Series [21] has as its target T3, Relaxin receptor 1 (Rattus norvegicus) (UniProt Q6R6I6).
T3 sequence (whole entry): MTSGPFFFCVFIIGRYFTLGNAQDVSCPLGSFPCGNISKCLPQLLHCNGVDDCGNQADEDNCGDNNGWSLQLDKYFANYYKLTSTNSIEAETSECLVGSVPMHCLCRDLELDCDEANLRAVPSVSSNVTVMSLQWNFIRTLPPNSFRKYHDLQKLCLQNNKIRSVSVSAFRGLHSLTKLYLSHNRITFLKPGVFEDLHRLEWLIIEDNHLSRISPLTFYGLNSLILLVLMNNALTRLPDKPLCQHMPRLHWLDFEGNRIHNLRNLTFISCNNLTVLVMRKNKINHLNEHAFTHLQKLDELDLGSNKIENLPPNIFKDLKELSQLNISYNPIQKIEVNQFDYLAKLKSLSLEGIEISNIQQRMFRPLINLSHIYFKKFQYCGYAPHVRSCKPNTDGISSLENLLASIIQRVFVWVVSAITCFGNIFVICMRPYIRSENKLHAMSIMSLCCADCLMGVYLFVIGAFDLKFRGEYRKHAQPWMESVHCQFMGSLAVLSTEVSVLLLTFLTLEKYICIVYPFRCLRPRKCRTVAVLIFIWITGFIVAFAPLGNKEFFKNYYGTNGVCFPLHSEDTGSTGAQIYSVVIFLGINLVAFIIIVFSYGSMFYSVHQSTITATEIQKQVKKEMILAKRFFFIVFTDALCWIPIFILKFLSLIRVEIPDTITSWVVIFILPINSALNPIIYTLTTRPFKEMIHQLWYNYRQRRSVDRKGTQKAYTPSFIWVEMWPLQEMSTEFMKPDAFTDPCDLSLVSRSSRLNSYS
Description: Agonist activity at rat RXFP1 expressed in T-Rex-CHO-K1 cells assessed as stimulation of cAMP production at 40 uM incubated for 45 mins by HTRF assay. Type of series: functional, cell-based.

Series [22] is described as follows: Oral bioavailability in Han Wistar rat at 2.0 micromol/kg by LC-MS/MS analysis. The series is classed as ADME, organism-based. Particulars: in vivo, 2 µmol/kg.
The nature of series [23]: Volume of distribution at steady state in Han Wistar rat at 0.99 micromol/kg, iv by LC-MS/MS analysis. Type of series: ADME, organism-based. The settings on record: in vivo, dose 0.99 µmol/kg, read-out: Vdss.

SMILES strings stand for the structures. ≈ marks a conversion by molar mass, not a printed value. Calls of active or inactive are those of the source. The calls are words filed in the database; no cut-off is given here.

Turning to `COc1cc(F)c(-c2ccc(C(=O)O)cc2)cc1C(=O)N[C@H]1[C@@H](C(=O)Nc2cccc(S(=O)(=O)C(F)(F)F)c2)[C@@H]2C=C[C@H]1C2` (racemic), the microsomal CLint at 1 µM in series [1] stood at 6.3 µL/min/mg. Moreover, the results for the CL free in series [2] and in series [10] were 457 µL/min and 121 µL/min/mg, respectively. Also, the EC50 in series [3] is 200 nM. Also, the hepatocyte CLint at 1 µM in [4] is 16 µL/min/1e6 cells. Also, the fraction unbound at 18 h, 5 µM in series [5] was determined as 0.0031. Also, the clearance in series [6] worked out at 73 mL/min/kg. For the same compound, the Vd in [7] is 0.92 L/kg. The same compound yielded a logD at 3 h in series [8] of 3.4. The half-life in [9] is 0.37 h.
As for `COc1cc(F)c(O[C@H]2CC[C@@H](C(=O)O)CC2)cc1C(=O)N[C@H]1[C@@H](C(=O)Nc2ccc(F)c(C(F)(F)F)c2)[C@@H]2C=C[C@H]1C2`, the EC50 in [3] was 15.8 nM. This compound also registered a log distribution coefficient (logD) at 3 h in [8] of 3.55. Moreover, the CL free in series [11] was found to be 175 µL/min. The hepatocyte CLint at 1 µM in [12] is 7.7 µL/min/1e6 cells. In addition, in series [13], the maximum response (Emax) was 124%. Moreover, the result in series [14] was inactive.
As to `CC(C)Oc1ccccc1C(=O)Nc1ccccc1C(=O)Nc1cccc(S(=O)(=O)C(F)(F)F)c1`, the microsomal CLint at 1 µM in series [1] is 55 µL/min/mg. For the same compound, the hepatocyte CLint at 1 µM in [4] was determined as 22 µL/min/1e6 cells; in [12], 12.6 µL/min/1e6 cells. In addition, in series [5], the fraction unbound at 18 h, 5 µM is less than 0.0002. This compound also returned a clearance in series [15] of 30 mL/min/kg. In addition, the CL free is 5.4 µL/min in [16], 3.07 10^3uL/min in series [11] and 37 10^3uL/min/mg in [10]. In series [17], the half-life was 4.3 h. For the same compound, the fraction unbound at 4 h, 1 µM in [18] was 4e-05; in series [20] it was 2e-05. Also, the solubility kinetic at 24 h in series [19] stood at 1 µM (≈ 0.507 µg/mL). The compound further returned a logD at 3 h in series [8] of more than 4. For the same compound, the result in series [21] was inactive. Besides, the bioavailability in series [22] stood at 40%. In addition, in [23], the Vd worked out at 7.7 L/kg.
